Assay results from US20240150755A1, “MODULATING REGULATORY T CELL FUNCTION IN AUTOIMMUNE DISEASE AND CANCER” (Salk Institute for Biological Studies, priority 2021, published 2024).

Legend:
H3K27ac = H3K27ac ChIP-seq in Treg cells; type: cell-based, mouse; settings: sgRNA transduced Treg cells
Description: Treg cells were collected and cross-linked first in 3 mM disuccinimidyl glutarate (DSG) in 1×PBS for thirty minutes then in 1% formaldehyde for another ten minutes, both at RT, for chromatin binding protein ChIP or in 1% formaldehyde only for histone modification ChIP. After quenching the excess cross-linker with a final concentration of 125 mM glycine, the cells were washed in 1× PBS, pelleted, flash-frozen in liquid nitrogen, and stored at −80° C. Cell pellets were thawed on ice and incubated in lysis solution (50 mM HEPES-KOH pH 8, 140 mM NaCl, 1 mM EDTA, 10% glycerol, 0.5% NP40, 0.25% Triton X-100) for ten minutes. The isolated nuclei were washed with wash solution (10 mM Tris-HCl pH 8, 1 mM EDTA, 0.5 mM EGTA, 200 mM NaCl) and shearing buffer (0.1% SDS, 1 mM EDTA, 10 mM Tris-HCl pH 8) then sheared in a Covaris® E229 sonicator for ten minutes to generate DNA fragments between ˜200-1000 base pairs (bp). After clarification of insoluble material by centrifugation, the chromatin was immunoprecipitated overnight at 4° C. with antibodies against Foxp3, Smarca4, Brd9, Phf10 or H3K27ac. […]
Single-end 50 bp or paired-end 42 bp reads were aligned to mouse genome mm10 using STAR alignment tool (V2.5) (Dobin et al., Bioinformatics 29:15-21, 2013). […]

[1] = tested on: MC38 colorectal tumor cell line; test: Adoptive T cell transfer and MC38 tumor model; type: in vivo, mouse
Text: Similar to the “Adoptive T cells transfer-induced colitis model,” Treg cells were activated in vitro and transduced with pSIRG-GFP expressing sgNT or sgBrd9. Four days after transduction, the GFP+ transduced Treg were FACS sorted. Concurrently, Treg depleted CD4 and CD8 T cells isolated from Rosa-Cas9/Foxp3^Thy1.1 mice were used as effector T cells. A total of 1 million pSIRG-sgRNA transduced GFP+ Treg cells, 1 million effector CD8 T cells, and 2 million Treg-depleted CD4 T cells were mixed and transferred into Rag1^−/− recipient mice. On the following day, mice were implanted with 0.5 million MC38 cells by subcutaneous injection on the flank of mouse. When palpable tumor appeared, tumor size was measured every two day by electronic calipers. At the end point, spleen and tumor were collected for immune profiling. For tumor processing, tumor tissues were minced into small pieces and digested with 0.5 mg/mL Collagenase IV (Sigma #C5138) and DNAase I (Roche #4716728001) for 20 minutes and passed through […] cell strainer to collect single cell suspension. Isolated cells were stimulated with PMA/Ionomycin and GolgiPlug™ for 5 hours, and then were subjected to Foxp3 and cytokines staining with eBioscience® Fix/Perm buffer (eBioscience #00-5523-00).

Foxp3-bound sites = test: Foxp3 ChIP-seq in Treg cells; type: cell-based, mouse
Text: For large scale Treg culture, Tregs were first expanded in Rosa-Cas9/Foxp3^Thy1.1 mice by injecting IL-2:IL-2 antibody immune complex according protocol described in Webster et. al (J Exp Med 206, 751-760, 2009). Spleen and lymph node Treg cells were labeled with PE-conjugated Thy1.1 antibody and isolated by magnetic selection using anti-PE microbeads (Mitenyl #130-048-801). All isolated Treg cells were activated by plate bound anti-CD3 and anti-CD28 antibodies and cultured with X-VIVO® 20 media (LONZA #04-448Q) supplemented by 1× Pen/Strep, 1× Sodium pyruvate, 1× HEPES, 1× GlutaMax™, 55 μM beta-mercaptoethanol in the presence of IL-2 at 500 units/mL. For experiments with Brd9 degradation, Treg cells were treated at day 0 with 2.5 μM dBRD9 (Tocris #6606) and cultured for four days for RNA- and ChIP-seq and 0.16-10 μM treated at day 0 and cultured dBRD9 for four days for Foxp3 MFI, cell viability and cell proliferation assays. Live cells were enriched by Ficoll-Paque® 1.084 (GE Health 17-5446-02) for RNA-seq and ChIP-seq.
Treg cells were collected and cross-linked first in 3 mM disuccinimidyl glutarate (DSG) in 1×PBS for thirty minutes then in 1% formaldehyde for another ten minutes, both at RT, for chromatin binding protein ChIP or in 1% formaldehyde only for histone modification ChIP. After quenching the excess cross-linker with a final concentration of 125 mM glycine, the cells were washed in 1× PBS, pelleted, flash-frozen in liquid nitrogen, and stored at −80° C. Cell pellets were thawed on ice and incubated in lysis solution (50 mM HEPES-KOH pH 8, 140 mM NaCl, 1 mM EDTA, 10% glycerol, 0.5% NP40, 0.25% Triton X-100) for ten minutes. The isolated nuclei were washed with wash solution (10 mM Tris-HCl pH 8, 1 mM EDTA, 0.5 mM EGTA, 200 mM NaCl) and shearing buffer (0.1% SDS, 1 mM EDTA, 10 mM Tris-HCl pH 8) then sheared in a Covaris® E229 sonicator for ten minutes to generate DNA fragments between ˜200-1000 base pairs (bp). After clarification of insoluble material by centrifugation, the chromatin was immunoprecipitated overnight at 4° C. with antibodies against Foxp3, Smarca4, Brd9, Phf10 or H3K27ac. The next day, the antibody bound DNA was incubated with Protein A+G Dynabeads™ (Invitrogen) in ChIP buffer (50 mM HEPES-KOH pH 7.5, 300 mM NaCl, 1 mM EDTA, 1% Triton X-100, 0.1% DOC, 0.1% SDS), washed and treated with Proteinase K and RNase A. Cross-linking was reversed by incubation at 55° C. for two and a half hours. Purified ChIP DNA was used for library generation (NuGen Ovation® Ultralow Library System V2) according to manufacturer's instructions for subsequent sequencing.
Single-end 50 bp or paired-end 42 bp reads were aligned to mouse genome mm10 using STAR alignment tool (V2.5) (Dobin et al., Bioinformatics 29:15-21, 2013). ChIP-Seq peaks were called using findPeaks within HOMER using parameters for histone (-style histone) or transcription factor (-style factor) (homer.ucsd.edu/homer/index.html). Peaks were called when enriched >two-fold over input and >four-fold over local tag counts, with FDR 0.001. For histone ChIP, peaks within a 1000 bp range were stitched together to form regions. Differential ChIP peaks were found by merging peaks from control and experiment groups and called using getDiffExpression.pl with fold change ≥1.5 or ≤−1.5, Poisson p value<0.0001.

[2] = transferred Treg population, vs sgNT

sgBrd9: sgRNA targeting Brd9, ATTAACCGGTTTCTCCCGGG (SEQ ID NO: 12) (expressed or natural sequence)
H3K27ac at Brd9-dependent Foxp3 sites (H3K27ac): reduction in H3K27ac
tumor growth ([1]; Rag1^−/− mice receiving sgRNA transduced Treg cells vs sgNT Treg cells): significantly slower
percentage of transferred Treg cells ([1]; relative to sgNT Treg cells): reduced
GFP^+Foxp3^− ex-Treg population [1, 2]: increase
percentage of ex-Treg cells producing IFN-γ [1, 2]: higher percentage
increase in the ratio of CD8 T cells to Treg cells ([1]; tumor and spleen, sgBrd9 versus sgNT): 2-3 fold
CD4 and CD8 T cell tumor infiltration ([1]; vs sgNT Treg cells): significantly increased
percentage of IFN-γ producing intra-tumor CD4 and CD8 T cells ([1]; vs sgNT Treg condition): significantly greater
Brd9-dependent sites where binding was not rescued by restoring Foxp3 expression (Foxp3-bound sites; sgBrd9 Treg cells plus ectopic Foxp3): ~71%
Foxp3 binding at CNS2/CNS0 (Foxp3-bound sites; sgRNA transduced Treg cells): marked reduction of Foxp3 binding at CNS2/CNS0
Foxp3 binding with ectopic Foxp3 expression (Foxp3-bound sites; sgRNA transduced Treg cells plus MIGR-Foxp3): partially restored Foxp3 binding
Foxp3 binding at a subset of Foxp3 sites (Brd9-dependent sites) (Foxp3-bound sites; sgRNA transduced Treg cells, FC1.5, Poisson p<0.0001): significantly reduced
